Experimental data as given in patent US7858597B2, “Preparation of formulations of angiotensin II AT1 receptors antagonists for the treatment of arterial hypertension, other cardiovascular illnesses and its complications” (Universidade Federal De Mimas Gerais - UFMG, priority 2001, dated 2010).
Where two headings read alike, the source gives them in different places.

Key:
[1] = cited from earlier work
[2] = biological target: T1, ANGIOTENSIN II AT1 receptor (Homo sapiens, UniProt P30556); details: cited from earlier work
T1 sequence (P30556 1-359): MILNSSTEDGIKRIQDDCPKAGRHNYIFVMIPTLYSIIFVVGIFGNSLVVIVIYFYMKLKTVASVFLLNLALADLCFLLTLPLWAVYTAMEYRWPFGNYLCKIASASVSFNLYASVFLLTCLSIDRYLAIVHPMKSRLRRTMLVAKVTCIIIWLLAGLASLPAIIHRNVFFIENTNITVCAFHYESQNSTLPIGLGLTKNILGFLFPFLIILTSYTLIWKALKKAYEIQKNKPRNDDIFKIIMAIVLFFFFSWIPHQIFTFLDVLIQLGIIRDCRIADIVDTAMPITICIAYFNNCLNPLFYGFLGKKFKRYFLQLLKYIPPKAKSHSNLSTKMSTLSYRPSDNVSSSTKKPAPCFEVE

[3] = tested on: pressor effect of Ang II; test: Pressor effect of Ang II in rats after losartan or losartan included in cyclodextrin (gavage); assay type: in vivo; details: losartan 0.2 mg/Kg, tested 2, 6, 24 and 48 hours after
[4] = tested on: pressor effect of Ang II; test: Pressor effect of Ang II in rats after subcutaneous losartan or losartan incorporated in biodegradable polymer (telemetric recording of arterial pressure); assay type: in vivo; details: losartan 0.7 mg
Method: Male rats weighing (330-350 g) instrumented for telemetric recording of arterial pressure (Data Science System) were anesthetized and submitted to the implantation of […] femoral vein. […] Injections of Ang II were made after 2, 8 and 24 hours and then at intervals of 24 hours, for 15 days.

[5] = cited from earlier work; remark: listed apart in the source
[6] = cited from earlier work; remark: listed apart in the source
[7] = cited from earlier work; remark: listed apart in the source

CCOc1nc2cccc(C(=O)O)c2n1Cc1ccc(-c2ccccc2-c2nnn[nH]2)cc1 [Candesartan]
bioavailability ([1]; in vivo): about 40%
half-life ([1]; in vivo): 9 h

CCCCc1ncc(/C=C(\Cc2cccs2)C(=O)O)n1Cc1ccc(C(=O)O)cc1 [Eprosartan, (E)-a-[[2-butyl-1-[(4-carboxyphenyl)metyl]-1H-imidazol-5-yl]methylene]-2-thiofenepropanoic acid]
eliminated through the feces ([1]; in vivo): Approximately 90%
time to peak of maximum concentration ([1]; in vivo): about 2 hours
binding / affinity for the Ang II AT1 receptor [2]: high affinity

CCCCC1=NC2(CCCC2)C(=O)N1Cc1ccc(-c2ccccc2-c2nnn[nH]2)cc1 [Irbersartan]
excreted by the bile ([1]; in vivo): 80%

CCCCc1nc(Cl)c(CO)n1Cc1ccc(-c2ccccc2-c2nn[nH]n2)cc1 [Losartan]
half-life ([1]; in vivo): about two
excreted as EXP-3174 ([1]; oral dose): 8%
excreted with the losartan ([1]; oral dose): 5%
duration of blockade of the pressor effect of Ang II [3]: about 8 hours
duration of blockade of the Ang II effect [4]: about 8 hours
solubility ([5]; in alcohol): soluble
solubility ([5]; in common organic solvents, such as acetonitrile and methyl-ethyl-cetone): slightly soluble
solubility ([5]; in water): soluble

CCOC(=O)[C@H](C)C[C@@H](C)C(=O)N1c2ccccc2C[C@H]1C(=O)O [Pentopril]
stability in the human plasma [6]: highly stable

CCCCc1nc(Cl)c(CC(=O)[O-])n1Cc1ccccc1Cl.[Na+] [S-8307]
binding / affinity for the Ang II AT1 receptor [2]: weak binding

CCCCc1nc(Cl)c(CC(=O)[O-])n1Cc1ccccc1[N+](=O)[O-].[Na+] [S-8308]
binding / affinity for the Ang II AT1 receptor [2]: weak binding

CCCc1nc2c(C)cc(-c3nc4ccccc4n3C)cc2n1Cc1ccc(-c2ccccc2C(=O)O)cc1 [Telmisartan]
bioavailability ([1]; in vivo): 45%
excreted by the bile ([1]; in vivo): 97%

CCCCC(=O)N(Cc1ccc(-c2ccccc2-c2nnn[nH]2)cc1)[C@H](C(=O)O)C(C)C [Valsartan, 1-oxopentyl-N′[[2′-(1H-tetrazole-5-yl)[1,1′-biphenyl]-4-yl]methyl]-L-vaniline]
half-life ([1]; in vivo): 9 h
time to peak of maximum concentration ([1]; in vivo): about 2 hours

CC[C@H](C)[C@H](NC(=O)[C@H](CCC(N)=O)NC(=O)[C@@H]1CCCN1C(=O)[C@H](CCCNC(=N)N)NC(=O)[C@@H]1CCCN1C(=O)[C@H](Cc1c[nH]c2ccccc12)NC(=O)[C@@H]1CCC(=O)N1)C(=O)N1CCC[C@H]1C(=O)N1CCC[C@H]1C(=O)O [teprotide]
anti-hypertensive action ([7]; intravenous route): has an anti-hypertensive action
anti-hypertensive action ([7]; oral route): inactive
